Data set [1] is described as follows: Toxicity in C57BL/6 mouse model assessed as effect on lungs treated intratumorally once every 2 days for 2 weeks followed every dosing irradiated with 640 +/- 15 nm red LED for 4 hrs measured upto 28 days by H and E staining dependent light microscopy based histopathological analysis. The following applies: in vivo, other, time <=28 day.
The subject of data set [2] is B16. The data set is described as follows: Antitumor activity against mouse B16 cells xenografted in C57BL/6 mouse assessed as tumor growth inhibition by measuring nuclear pyknosis treated at high dose intratumorally once every 2 days for 2 weeks followed every dosing irradiated with 640 +/- 15 nm red LED for 4 hrs measured after 14 days treatment. The format is functional, cell-based. The note with it: time 14.0 day.

In data set [3] the test system is B16. As to the kind of experiment: Induction of apoptosis in mouse B16 cells assessed as increase in cytochrome c level at 200 to 400 nM irradiated with 640 +/- 15 nm red LED for 1 hrs measured after 24 hrs by Western blot analysis. The format is functional, cell-based. The following applies: dose 200-400 nM. A general note: Immunoblotting shows a protein as a band on a membrane.

A short description of data set [4]: Toxicity in C57BL/6 mouse assessed as effect on alanine aminotransferase level measured after 2 days. The following applies: in vivo, 48 h, time 2 day.
Data set [5] relates to HeLa. The data set is described as follows: Photocytotoxicity against human HeLa cells assessed as reduction in cell viability irradiated with 640 +/- 15 nm red LED for 4 hrs measured after 24 hrs by MTT assay. The note with it: light or radiation study. Type of data set: functional, cell-based. (In general: Formazan colour is commonly taken as a measure of viable cells.)

Data set [6] in a line: Drug uptake in human A-375 cells mitochondria incubated for 24 hrs by mito-tracker green based confocal microscopic method. The following applies: a-375, 24 h. Type of data set: ADME.
For data set [7], the system named is A-375. As to the kind of experiment: Induction of apoptosis in human A-375 cells assessed as decrease in Bcl2 level at 100 to 300 nM irradiated with 640 +/- 15 nm red LED for 1 hrs measured after 24 hrs by Western blot analysis. Type of data set: functional, cell-based. The following applies: dose 100-300 nM.
Data set [8] has as its system A-375. The data set is described as follows: Antitumor activity against human A-375 cells xenografted in BALB/c mouse assessed as tumor growth inhibition by measuring nuclear pyknosis treated at high dose intratumorally once every 2 days for 2 weeks followed every dosing irradiated with 640 +/- 15 nm red LED for 4 hrs measured after 14 days treatment. The format is functional, cell-based. The following applies: time 14.0 day. A general note: A xenograft is tissue or cells of one species grown in another, often human tumour cells in immunodeficient mice.

Data set [9] concerns A-375. The data set is described as follows: Photocytotoxicity against human A-375 cells assessed as reduction in cell viability irradiated with 640 +/- 15 nm red LED for 4 hrs measured after 24 hrs under hypoxic condition by MTT assay. Type of data set: functional, cell-based. The following applies: A-375, light or radiation study.
Data set [10] relates to A-375. The data set is described as follows: Antiproliferative activity against human A-375 cells assessed as inhibition of cell proliferation irradiated with 640 +/- 15 nm red LED for 4 hrs in presence of 30 uM L-histidine measured after 24 hrs under hypoxic condition by MTT assay. The format is functional, cell-based.
Data set [11] deals with B16. The data set is described as follows: Antiproliferative activity against mouse B16 cells assessed as inhibition of cell proliferation irradiated with 640 +/- 15 nm red LED for 4 hrs in presence of 30 uM L-histidine measured after 24 hrs by MTT assay. The format is functional, cell-based.
Data set [12] in a line: Toxicity in C57BL/6 mouse assessed as effect on aspartate aminotransferase level measured after 2 days. The following applies: in vivo, 48 h, time 2 day.
The nature of data set [13]: Toxicity in C57BL/6 mouse assessed as effect on blood urea nitrogen level measured upto 14 days. The following applies: in vivo, 336 h, time <=14 day.
Data set [14] is described as follows: Toxicity in C57BL/6 mouse model assessed as effect on heart treated intratumorally once every 2 days for 2 weeks followed every dosing irradiated with 640 +/- 15 nm red LED for 4 hrs measured upto 28 days by H and E staining dependent light microscopy based histopathological analysis. Type of data set: tissue-based. The note with it: in vivo, other, time <=28 day.

The nature of data set [15]: Drug uptake in human A-375 cells upto 2 hrs by flow cytometric analysis. Type of data set: ADME, cell-based. The following applies: a-375, 2 h.
For data set [16], the system named is A-375. As to the kind of experiment: Induction of apoptosis in human A-375 cells assessed as apoptotic cells at 300 nM […] irradiated with 640 +/- 15 nm red LED for 1 hrs after 24 hrs by Annexin V-FITC/propidium iodide staining based flow cytometric analysis relative to control. The format is functional, cell-based.

Calls of active or inactive are those of the source. No cut-off for these calls is given here.

Turning to `CC(C)(C)C1=Cc2nc1ccc1[nH]c(cc1S(=O)(=O)NCCOCCO)c1nc(ccc3[nH]c2cc3C(C)(C)C)C(C(C)(C)C)=C1`, the Activity entry was “Non-Toxic” in data set [1]; “Toxic” in [4]; “Toxic” in [12]; “Non-Toxic” in data set [13]; “Non-Toxic” in [14]. For the same molecule, the outcome in data set [2], in [3], in [7], in data set [8], in data set [10] and in data set [11] was Active. Further, the result in data set [16] was Active. For the same molecule, the values for the DC50 in [5] and in data set [9] were 0.015 µM and 0.324 µM, respectively. For the same molecule, the Drug uptake entry in data set [6] and in data set [15] was “Active” each time.

The record behind these values is ChEMBL document CHEMBL4732046, “A red-light-activated sulfonamide porphycene for highly efficient photodynamic therapy against hypoxic tumor” (Eur J Med Chem, 2021).
